This is an account of results in patent publication US7550431B2, “Spatially-defined macrocycles incorporating peptide bond surrogates” (Tranzyme Pharma Inc., priority 2003, dated 2009).

The target of the first assay is T1, human ghrelin receptor (hGHS-R1a) (Homo sapiens, UniProt Q92847).
T1 construct: purchased PerkinElmer BioSignal RBHGHSM, lot#1887; host or cells: HEK-293 cells, stably transfected (membranes GHS-R/HEK 293)
T1 sequence (Q92847 whole entry): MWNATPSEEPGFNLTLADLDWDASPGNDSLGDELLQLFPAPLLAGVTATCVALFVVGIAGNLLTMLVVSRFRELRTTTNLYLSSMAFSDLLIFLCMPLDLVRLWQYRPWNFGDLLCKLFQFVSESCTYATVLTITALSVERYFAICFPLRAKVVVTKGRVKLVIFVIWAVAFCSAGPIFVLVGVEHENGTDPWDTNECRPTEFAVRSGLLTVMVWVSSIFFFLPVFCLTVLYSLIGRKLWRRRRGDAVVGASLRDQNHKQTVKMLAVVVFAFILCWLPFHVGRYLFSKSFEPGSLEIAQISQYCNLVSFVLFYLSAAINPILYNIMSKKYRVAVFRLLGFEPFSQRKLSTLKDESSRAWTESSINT
The assay is described as follows: Competitive radioligand binding assay (ghrelin receptor), Method B2. The settings on record: [125I]-ghrelin competition, HEK-293 cell membranes. The method, then:
(§1) The compounds of the present invention were evaluated for their ability to interact at the human motilin receptor and the human ghrelin receptor utilizing competitive radioligand binding assays as described in Method B1 and B2, respectively. Further characterization of the interaction can be performed utilizing the functional assays described in Methods B3 and B4 for the motilin and ghrelin receptors, respectively. All of these methods can be conducted, if so desired, in a high throughput manner to permit the simultaneous evaluation of many compounds.
Competitive Radioligand Binding Assay (Ghrelin Receptor)
The competitive binding assay at the human growth hormone secretagogue receptor (hGHS-R1a) was carried out analogously to assays described in the literature. (Bednarek M A et al. (2000), Structure-function studies on the new growth hormone-releasing peptide ghrelin: minimal sequence of ghrelin necessary for activation of growth hormone secretagogue receptor 1a; J Med Chem 43:4370-4376. Palucki B L et al. (2001), Spiro(indoline-3,4′-piperidine) growth hormone secretagogues as ghrelin mimetics; Bioorg Med Chem Lett 11:1955-1957.)
• Membranes (GHS-R/HEK 293) were prepared from HEK-293 cells stably transfected with the human ghrelin receptor (hGHS-R1a).
Compounds were provided frozen on dry ice at a stock concentration of 10 mM diluted in 100% DMSO and stored at −80° C. until the day of testing. On the test day, compounds were allowed to thaw at rt overnight and then diluted in assay buffer according to the desired test concentrations. Under these conditions, the maximal final DMSO concentration in the assay was 0.1%.
In deep-well plates, 220 μl of diluted cell membranes (final concentration: 0.71 μg/well) were combined with 40 μl of either binding buffer (total binding, N=5), 1 μM ghrelin (non-specific binding, N=3) or the appropriate concentration of test compound (N=2 for each test concentration). […] Plates were sealed with TopSeal-A, vortexed gently and incubated at rt for 30 min. The reaction was arrested by filtering samples through Multiscreen® Harvest plates (pre-soaked in 0.5% polyethyleneimine) using a Tomtec® Harvester, washed 9 times with 500 μL of cold 50 mM Tris-HCl (pH 7.4, 4° C.), and then plates were air-dried in a fumehood for 30 min. A bottom seal was applied to the plates prior to the addition of 25 μl of MicroScint™-0 to each well. Plates were than sealed with TopSeal-A and counted for 30 sec per well on a TopCount® Microplate Scintillation and Luminescence Counter (PerkinElmer®) using a count delay of 60 sec. Results were expressed as counts per minute (cpm).
Data were analyzed by GraphPad Prism® (GraphPad Software, Inc., San Diego, Calif.) using a variable slope non-linear regression analysis.
Consider `C[C@@H]1NCCOc2ccccc2CCCNC(=O)[C@@H](Cc2ccccc2)NC(=O)CN(C)C1=O` [Compound 124], for which the Ki lay within 1000 to 10000 nM.
The same measure, in the same setting: then `CN1CC(=O)N[C@H](Cc2ccccc2)C(=O)NCCCc2ccccc2OCCN[C@@H](CCCCN)C1=O` [Compound 127], with 1000 to 10000 nM; and `CN1CC(=O)N[C@H](Cc2ccccc2)C(=O)NCCCc2ccccc2OCCN[C@@H](Cc2ccccc2)C1=O` [Compound 128], with 100 to 1000 nM.
On the same count and under the same terms, then `CCC(C)[C@@H]1NCCOc2ccccc2CCCNC(=O)[C@@H](Cc2ccccc2)NC(=O)[C@H](C(C)C)N(C)C1=O` (stereo partly shown) [Compound 131], with 100 to 1000 nM.
Still for that read-out and setting: then `CCC(C)[C@@H]1NCCOc2ccccc2CCCNC(=O)[C@@H](Cc2ccccc2)NC(=O)[C@@H](C(C)CC)N(C)C1=O` (stereo partly shown) [Compound 136], with 1000 to 10000 nM.
In the case of `CCC(C)[C@@H]1NCCOc2ccccc2CCCNC(=O)[C@@H](Cc2ccccc2)NC(=O)[C@H](C(C)CC)N(C)C1=O` (stereo partly shown) [Compound 138], the Ki fell in the range of 100 to 1000 nM.
Same read-out and setting: the result for `C[C@@H]1C(=O)N[C@H](Cc2ccc(F)cc2)C(=O)NCCOCCOCCN[C@@H](C2CC2)C(=O)N1C` [Compound 140] reads 1000 to 10000 nM; that for `C[C@@H]1C(=O)N[C@H](Cc2ccc(F)cc2)C(=O)NCCOc2cccc(c2)OCCN[C@@H](C2CC2)C(=O)N1C` [Compound 149], 100 to 1000 nM; that for `CCC[C@@H]1NCc2cccc(c2)CNC(=O)[C@@H](Cc2ccccc2)NC(=O)CN(C)C1=O` [Compound 158], 1000 to 10000 nM.
The same measure, in the same setting: then `CCC(C)[C@@H]1NCCOc2ccccc2/C=C/CNC(=O)N(Cc2ccccc2)NC(=O)[C@@H](C)N(C)C1=O` (stereo partly shown) [Compound 165], with 10 to 100 nM; and `CCC[C@H]1C(=O)N(C)[C@H](C)C(=O)N[C@H](Cc2ccccc2)C(=O)NCCCc2ccccc2OCCN1C` [Compound 167], with 100 to 1000 nM.

The target in another assay is T2, human motilin receptor (Homo sapiens, UniProt O43193).
T2 construct: purchased PerkinElmer (SignalScreen) 6110544; host or cells: CHO cells, stably transfected (membranes)
T2 sequence (O43193 whole entry): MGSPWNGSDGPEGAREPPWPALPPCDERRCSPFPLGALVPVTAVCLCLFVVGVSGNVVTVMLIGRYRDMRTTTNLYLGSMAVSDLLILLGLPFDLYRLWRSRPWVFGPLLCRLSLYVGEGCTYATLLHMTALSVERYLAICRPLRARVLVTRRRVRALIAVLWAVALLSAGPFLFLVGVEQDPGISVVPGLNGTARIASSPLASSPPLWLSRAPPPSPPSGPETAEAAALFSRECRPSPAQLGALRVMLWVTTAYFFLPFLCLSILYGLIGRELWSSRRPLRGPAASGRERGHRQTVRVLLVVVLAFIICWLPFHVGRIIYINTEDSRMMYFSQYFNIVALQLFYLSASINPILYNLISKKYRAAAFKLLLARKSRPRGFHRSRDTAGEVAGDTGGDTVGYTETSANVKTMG
The assay is described as follows: Competitive radioligand binding assay (motilin receptor), Method B1. The settings on record: [125I]-motilin competition, CHO cell membranes. The method, then:
as §1
Competitive Radioligand Binding Assay (Motilin Receptor)
• Membranes were prepared from CHO cells stably transfected with the human motilin receptor and utilized at a quantity of 1.5 μg/assay point. [PerkinElmer® SignalScreen® Product #6110544, Perkin Elmer, Inc., Wellesley, Mass.] • [^125I]-Motilin (PerkinElmer®, #NEX-378); final concentration: 0.04-0.06 nM • Motilin (Bachem®, #H-4385, Bachem AG Corporation, Bubendorf, Switzerland); final concentration: 1 μM • Multiscreen® Harvest plates-GF/B (Millipore®, #MAHFB1H60, Millipore Corporation, Billerica, Mass.) • Deep-well polypropylene titer plate (Beckman Coulter®, #267006, Beckman Coulter, Inc., Fullerton, Calif.) • TopSeal-A (PerkinElmer®, #6005185) • Bottom seal (Millipore®, #MATAH0P00) • MicroScint™-0 (PerkinElmer®, #6013611) • Binding Buffer: 50 mM Tris-HCl (pH 7.4), 10 mM MgCl2, 1 mM EDTA, 0.1% BSA
Assay Volumes: • 150 μl of membranes diluted in binding buffer • 10 μl of compound diluted in binding buffer • 10 μl of radioligand ([^125I]-Motilin) diluted in binding buffer
Compounds were provided frozen on dry ice at a stock concentration of 10 mM diluted in 100% DMSO and stored at −20° C. until the day of testing. On the test day, compounds were allowed to thaw at room temperature and than diluted in assay buffer according to the desired test concentrations. Under these conditions, the maximum final DMSO concentration in the assay was 0.5%.
In deep-well plates, diluted cell membranes (1.5 μg/mL) are combined with 10 μl of either binding buffer (total binding, N=5), 1 μM motilin (non-specific binding, N=3) or the appropriate concentration of test compound. The reaction is initiated by addition of 10 μl of [^125I]-motilin (final conc. 0.04-0.06 nM) to each well. Plates are sealed with TopSeal-A, vortexed gently and incubated at room temperature for 2 hours. The reaction is arrested by filtering samples through pre-soaked (0.3% polyethyleneimine, 2 h) Multiscreen® Harvest plates using a Tomtec ® Harvester (TomTec, Inc., Hamden Conn.), washed 9 times with 500 μl of cold 50 mM Tris-HCl (pH 7.4), and than plates are air-dried in a fumehood for 30 minutes. A bottom seal is applied to the plates prior to the addition of 25 μl of MicroScint™-0 to each well. Plates are than sealed with TopSeal-A and counted for 30 sec per well on a TopCount® Microplate Scintillation and Luminescence Counter (PerkinElmer®) where results are expressed as counts per minute (cpm).
Data are analyzed by GraphPad Prism® (GraphPad Software, Inc., San Diego, Calif.) using a variable slope non-linear regression analysis.
[formula] where total and non-specific binding represent the cpm obtained in the absence or presence of 1 μM motilin, respectively.
As to `CC(C)[C@H]1CC[C@@H](Cc2cccc(Cl)c2)NCCOc2ccccc2CCCNC(=O)[C@H](CNC(=N)N)NC1=O` [Compound 101], the Ki lay in the range of 10 to 100 nM.
Same read-out and setting: then `CCC[C@@H]1CC[C@@H](C(C)C)NC(=O)[C@@H](Cc2cccc(Cl)c2)NCCOc2ccccc2CCCNC1=O` [Compound 103], with 1000 to 10000 nM.
Still for that read-out and setting: the result for `CCC[C@@H]1/C=C/[C@@H](C(C)C)NC(=O)[C@@H](Cc2cccc(Cl)c2)NCCOc2ccccc2CCCNC1=O` [Compound 104] reads 1000 to 10000 nM; that for `CCC[C@@H]1NC(=O)[C@@H](C(C)C)/C=C/[C@@H](Cc2ccc(OC)cc2)NCCOc2ccccc2CCCNC1=O` [Compound 105], 1000 to 10000 nM; that for `CCC[C@@H]1NC(=O)[C@@H](C(C)C)CC[C@@H](Cc2ccc(OC)cc2)NCCOc2ccccc2CCCNC1=O` [Compound 109], 100 to 1000 nM.
The same measure, in the same setting: the result for `CCC[C@@H]1NC(=O)C(C(C)C)CC[C@@H](Cc2ccc(OC)cc2)NCCOc2ccccc2CCCNC1=O` (stereo partly shown) [Compound 110] reads 1000 to 10000 nM.
`CCC[C@@H]1NC(=O)[C@@H](C(C)C)OC(=O)[C@@H](Cc2cccc3ccccc23)NCCOc2ccccc2CCCNC1=O` [Compound 111] displayed a Ki of 100 to 1000 nM.
The same measure, in the same setting: the result for `CCC[C@@H]1NC(=O)C(C(C)C)OC(=O)[C@@H](Cc2ccc(OC)cc2)NCCOc2ccccc2CCCNC1=O` (stereo partly shown) [Compound 112] reads 100 to 1000 nM; that for `CCC[C@@H]1NC(=O)[C@@H](C(C)C)NC(=O)[C@@H](Cc2ccc(O)cc2)NCCOc2ccccc2CCCOC1=O` [Compound 115], 1000 to 10000 nM.
`CC(C)C[C@H]1C(=O)NCCCc2ccccc2OCCN[C@H](Cc2ccc(O)cc2)C(=O)N[C@H](C(C)C)C(=O)N1C` [Compound 116] yielded a Ki of 100 to 1000 nM.
Still for that read-out and setting: the result for `CCC[C@@H]1NC(=O)[C@@H](C(C)C)OC(=O)[C@@H](Cc2ccc(O)cc2)NCCOc2ccccc2CCCNC1=O` [Compound 119] reads 100 to 1000 nM.

By Ki is commonly meant a dissociation constant, usually derived from enzyme kinetics or from competition with a known ligand. A lower Ki goes with higher affinity.
